Data on nine compounds can be found in US10519159B2, “Antiviral aliphatic ester prodrugs of tenofovir” (Merck Sharp & Dohme Corp., priority 2016, dated 2019).

Where two headings read alike, the source gives them in different places.

In general, IC50 refers to the concentration that gives 50% inhibition.

A short description of series [1]: Prodrug stability assay in bio-relevant media (FaSSIF with pancreatin), GI tract stability. The format is in vitro ADME. To be noted: Table 1; % parent: HPLC peak area of prodrug at 5 h / 0 h, 0.5 mg/mL pancreatin in FaSSIF, 37° C. The protocol: Prodrug Stability Assay in Bio-Relevant Media
The following assay was employed to evaluate the stability of the prodrugs in simulated gastrointestinal tract conditions. Preparation of fasted state simulated intestinal fluid (FaSSIF) using Phares SIF Powder was carried out according to protocols from Phare Drug Delivery AG (Baselland, Switzerland). For sample preparation, 10 μL stock solutions (10 mM) of prodrug substance in DMSO was added to 990 μL of 0.5 mg/mL Pancreatin solution (Fisher CAS #8049-47-6) in FaSSIF. Two samples were prepared for each compound. If the sample was a clear solution, it was directly analyzed by HPLC. If the sample was not clear, the sample was […], maintained at 37° C. and observed 5 h later. If the sample was clear, HPLC analysis was directly performed. If the sample was still not clear, the sample was diluted with 100% ACN and assayed by HPLC. All the samples were vortexed for 3 min and observed before injection. For the diluted samples, the area is multiplied by a dilution factor when the data is analyzed. The analysis was carried out with an Agilent 1100 series HPLC with autosampler. The column was a Poroshell 120 EC-C18, 4.6×50 mm, 2.7 μm. The flow rate was 1.8 mL/min, and the injection volume was 5 or 10 μL. UV detection was in the range 210-400 nm. The mobile phase consisted of solvent A (water plus 10 mM tetrabutylammonium bromide) and solvent B (acetonitrile) with a gradient of: 90% solvent A at 0 min, changing to 95% solvent B over 6 min, maintaining for 1.5 min, then reverting to 90% solvent A over 1.6 min. The HPLC peak area of the prodrug at 5 h was divided by the HPLC peak area of the prodrug at 0 h, to generate the % claimed parent ratio, which is summarized in Table 1 for gastrointestinal (GI) Tract stability.

Another series deals with HIV-1 (H9/IIIB strain). Description: Multiple round HIV-1 infection assay (Viking assay) in MT4-GFP cells. It counts as cell-based. The conditions noted are these: Table 1, MT4-GFP cells infected with HIV-1 H9/IIIB. The protocol: Assessing Antiviral Potency in a Multiple Round HIV-1 Infection Assay (Viking Assay)
The antiviral activity of the tenofovir prodrugs of the Examples herein was assessed in an assay that measures the rate of replication of HIV in cell culture, termed the Viking assay (Viral KINetics in Green cells) and performed as follows. HIV-1 replication was monitored using MT4-gag-GFP clone D3 (hereafter designated MT4-GFP), which are MT-4 cells modified to harbor a GFP reporter gene, the expression of which is dependent on the HIV-1 expressed proteins tat and rev. Productive infection of an MT4-GFP cell with HIV-1 results in GFP expression approximately 24 h post-infection. MT4-GFP cells were maintained at 37° C./5% CO2/90% relative humidity in RPMI 1640 supplemented with 10% fetal bovine serum, 100 U/ml penicillin/streptomycin, and 400 μg/ml G418 to maintain the reporter gene. For infections, MT4-GFP cells were placed in the same medium lacking G418 and infected overnight with HIV-1 (H9/IIIB strain) virus at an approximate multiplicity of infection of 0.01 in the same incubation conditions. Cells were then washed and re-suspended in either RPMI 1640 supplemented with 10% or 50% normal human serum (NHS) at 1.6×10^5 cells/mL (10% NHS or 50% NHS, respectively). Compound plates were prepared by dispensing compounds dissolved in DMSO into wells of 384 well poly-D-lysine-coated plates (0.2 μl/well) using an ECHO acoustic dispenser. Each compound was tested in a 10-point serial 3-fold dilution (typical final concentrations: 8.4 μM-0.42 nM). Controls included no inhibitor (DMSO only) and a combination of three antiviral agents (efavirenz, indinavir, an in-house integrase strand transfer inhibitor at final concentrations of 4 μM each). Cells were added (50 μL/well) to compound plates and the infected cells were maintained at 37° C./5% CO2/90% relative humidity.
Infected cells were quantified at two time points, ˜48 h and ˜72 h post-infection, by counting the number of green cells in each well using an Acumen eX3 scanner. The increase in the number of green cells over ˜24 h period gives the reproductive ratio, R0, which is typically 5-15 and has been shown experimentally to be in logarithmic phase (data not shown). Inhibition of R0 is calculated for each well, and IC50s determined by non-linear 4-parameter curve fitting.

Setting [2] is: 10% normal human serum, read-out: Viking, IC50 (10% NHS).
[3] abbreviates: 50% normal human serum, read-out: Viking, IC50 (50% NHS).
The mark [4] stands for this setting: read-out: Viking, IC50 (10% NHS), 10% normal human serum.
Where [5] appears, read: read-out: Viking, IC50 (50% NHS), 50% normal human serum.

For the compound `CCCCCOC(=O)C(C)(C)NP(=O)(CO[C@H](C)Cn1cnc2c(N)ncnc21)OCCC(=O)OC(C)C` (single isomer, unassigned) [Example 8A], in series [1], the “GI Tract stability” value is given as 92.12%. Also, the IC50 in the series on HIV-1 (H9/IIIB strain) (setting [2]) worked out at 0.92 nM; in the series on HIV-1 (H9/IIIB strain) (setting [3]) it was 11.3 nM.

Take `CCCCCOC(=O)C(C)(C)NP(=O)(CO[C@H](C)Cn1cnc2c(N)ncnc21)OCCC(=O)OC(C)C` (single isomer, unassigned) [Example 8B]: in series [1], the “GI Tract stability” value was 99.59%. For the same compound, the IC50 was 7.59 nM with HIV-1 (H9/IIIB strain) (setting [2]) and 49.8 nM in the series on HIV-1 (H9/IIIB strain) (setting [3]).

For `CC(C)OC(=O)C(C)(C)COP(=O)(CO[C@H](C)Cn1cnc2c(N)ncnc21)NC(C)(C)C(=O)OC(C)C` (single isomer, unassigned) [Example 9B], the “GI Tract stability” value in series [1] was determined as 98.18%. Also, the IC50 was 8.34 nM with HIV-1 (H9/IIIB strain) (setting [2]) and 26.4 nM with HIV-1 (H9/IIIB strain) (setting [3]).

As for `CC(C)OC(=O)C[C@H](C)OP(=O)(CO[C@H](C)Cn1cnc2c(N)ncnc21)NC(C)(C)C(=O)OC(C)C` (single isomer, unassigned) [Example 10A], the “GI Tract stability” value in series [1] is 99.75%. For the same compound, the 50% inhibitory concentration (IC50) in the series on HIV-1 (H9/IIIB strain) (setting [2]) worked out at 11.4 nM; in the series with HIV-1 (H9/IIIB strain) (setting [3]), 71.7 nM.

As to `CCCOC(=O)C(C)(C)NP(=O)(CO[C@H](C)Cn1cnc2c(N)ncnc21)OCCc1cccc(C(=O)OC(C)C)c1` (single isomer, unassigned) [Example 11A], the “GI Tract stability” value in series [1] came out at 88.58%. The IC50 in the series with HIV-1 (H9/IIIB strain) (setting [2]) is 2.18 nM; in the series with HIV-1 (H9/IIIB strain) (setting [3]) it was 6.39 nM.

As to `CCCOC(=O)C(C)(C)NP(=O)(CO[C@H](C)Cn1cnc2c(N)ncnc21)SCCC(=O)OC(C)C` (single isomer, unassigned) [Example 12A], in series [1], the “GI Tract stability” value is 96.69%. Besides, the IC50 in the series on HIV-1 (H9/IIIB strain) (setting [4]) is 75.4 nM; in the series with HIV-1 (H9/IIIB strain) (setting [5]) it was 322 nM.

On to `CCCOC(=O)C(C)(C)NP(=O)(CO[C@H](C)Cn1cnc2c(N)ncnc21)SCCC(=O)OC(C)C` (single isomer, unassigned) [Example 12B], for which the “GI Tract stability” value in series [1] is 54.83%. Moreover, the half-maximal inhibitory concentration (IC50) with HIV-1 (H9/IIIB strain) (setting [4]) is 13 nM; in the series with HIV-1 (H9/IIIB strain) (setting [5]), 38.6 nM.

On to `CCCSC(=O)C(C)(C)NP(=O)(CO[C@H](C)Cn1cnc2c(N)ncnc21)OCCC(=O)OC(C)C` (single isomer, unassigned) [Example 13A], for which, in series [1], the “GI Tract stability” value was determined as 76.99%. The IC50 with HIV-1 (H9/IIIB strain) (setting [2]) came out at 5.08 nM; in the series with HIV-1 (H9/IIIB strain) (setting [3]), 21.9 nM.

As for `CCCOC(=O)C(C)(C)NP(=O)(CO[C@H](C)Cn1cnc2c(N)ncnc21)OCc1cccc(C(=O)OC(C)C)c1` (single isomer, unassigned) [Example 14A], the “GI Tract stability” value in series [1] was 96.71%. The concentration for half-maximal inhibition (IC50) in the series on HIV-1 (H9/IIIB strain) (setting [2]) is 1.71 nM; in the series with HIV-1 (H9/IIIB strain) (setting [3]), 7.58 nM.
